This passage reports TGI results from PubChem BioAssay (NCI).

Some test systems named below: CCRF-CEM leukemia; KM12 colon; M14 melanoma; NCI-H226 lung; NCI-H23 lung; NCI-H522 lung; NCI/ADR-RES ovarian; OVCAR-3 ovarian; SK-MEL-2 melanoma; SK-MEL-5 melanoma; SN12C renal; SNB-75 CNS; SR leukemia; TK-10 renal; UO-31 renal.
Holding throughout (assay): NCI-60 cell line screen, 48 h

Each structure is given as a SMILES string.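 Following 48 hours of exposure in 96-well plates, responses at five concentrations were used to interpolate endpoints linearly. TGI is the concentration that stops growth completely.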

Consider `O=C(c1ccco1)C1CC(c2c(O)ccc3ccccc23)=NN1` (stereo not given), for which the TGI amounted to 93 µM with CCRF-CEM leukemia; 24.3 µM with KM12 colon; 26 µM with M14 melanoma; 40.2 µM with NCI-H226 lung; 37.7 µM with NCI-H23 lung; 22.5 µM with NCI-H522 lung. Also, the TGI in the experiment on NCI/ADR-RES ovarian was 51.1 µM; in the experiment on OVCAR-3 ovarian, 25.8 µM; in the experiment with SK-MEL-2 melanoma it was 39.2 µM; in the experiment on SK-MEL-5 melanoma, 29.7 µM; in the experiment on SN12C renal, 46 µM; with SNB-75 CNS, 33.6 µM. In addition, the TGI with SR leukemia worked out at 42.8 µM; in the experiment on TK-10 renal, 32.5 µM; with UO-31 renal, 23.1 µM.
